{"source": "paper PMC3929961", "about": "(Molecular cell, 2013)", "type_in_all_cases": "binding", "key": {"GstDnaB": {"target": "T1, GstDnaB (Geobacillus stearothermophilus, UniProt Q9X4C9)", "T1 sequence (Q9X4C9 1-454)": "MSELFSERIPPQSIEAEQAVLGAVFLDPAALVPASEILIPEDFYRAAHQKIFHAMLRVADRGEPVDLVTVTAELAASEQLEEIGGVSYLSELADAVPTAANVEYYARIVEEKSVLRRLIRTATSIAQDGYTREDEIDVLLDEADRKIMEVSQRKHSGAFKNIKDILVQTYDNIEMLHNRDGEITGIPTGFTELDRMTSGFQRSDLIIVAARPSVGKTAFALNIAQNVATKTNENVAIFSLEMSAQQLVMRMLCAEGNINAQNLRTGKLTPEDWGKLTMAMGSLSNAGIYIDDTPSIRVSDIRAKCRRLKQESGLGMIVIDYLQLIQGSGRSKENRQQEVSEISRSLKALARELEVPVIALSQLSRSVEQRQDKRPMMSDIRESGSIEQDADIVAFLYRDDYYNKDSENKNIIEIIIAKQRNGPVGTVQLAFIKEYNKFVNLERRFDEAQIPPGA", "test": "negative-stain EM 2D class averages"}, "EcDnaB [1]": {"target": "T2, EcDnaB (Escherichia coli, UniProt P0ACB0)", "T2 sequence (P0ACB0 2-471)": "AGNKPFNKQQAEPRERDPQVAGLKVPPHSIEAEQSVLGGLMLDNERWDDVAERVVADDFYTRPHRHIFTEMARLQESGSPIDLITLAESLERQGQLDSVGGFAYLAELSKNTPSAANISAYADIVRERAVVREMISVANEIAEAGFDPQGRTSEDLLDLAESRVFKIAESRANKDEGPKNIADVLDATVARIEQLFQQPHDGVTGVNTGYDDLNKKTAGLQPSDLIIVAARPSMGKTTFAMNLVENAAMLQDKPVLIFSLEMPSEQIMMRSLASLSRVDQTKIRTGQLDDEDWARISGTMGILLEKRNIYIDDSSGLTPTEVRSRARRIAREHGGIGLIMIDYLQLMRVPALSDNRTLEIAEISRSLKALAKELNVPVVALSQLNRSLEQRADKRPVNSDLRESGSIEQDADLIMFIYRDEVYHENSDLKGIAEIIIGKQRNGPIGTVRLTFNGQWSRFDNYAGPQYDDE", "test": "negative-stain EM 2D class averages"}, "EcDnaB [2]": {"target": "T2, EcDnaB", "test": "negative-stain EM 2D class averages and SAXS", "conditions": "0-1 mM AMPPNP in SAXS"}}}
{"smiles": "Nc1ncnc2c1ncn2[C@@H]1O[C@H](COP(=O)(O)OP(=O)(O)OP(=O)(O)O)[C@@H](O)[C@H]1O", "note": "[ATP]", "values": [{"measurement": "negative-stain EM 2D class averages (collar constriction)", "setting": "GstDnaB", "result": "2D EM analysis again revealed evidence for a constricted species in the presence of ATP"}]}
{"smiles": "Nc1ncnc2c1ncn2[C@@H]1O[C@H](COP(=O)(O)OP(=O)(O)OP(O)(O)=S)[C@@H](O)[C@H]1O", "note": "[ATPγS]", "values": [{"measurement": "negative-stain EM 2D class averages (collar constriction)", "setting": "EcDnaB [1]", "result": "two kinds of 2D class averages were observed for EcDnaB in the presence of ATPγS"}]}
{"smiles": "Nc1ncnc2c1ncn2[C@@H]1O[C@H](COP(=O)(O)OP(=O)(O)NP(=O)(O)O)[C@@H](O)[C@H]1O", "note": "[AMPPNP]", "values": [{"measurement": "negative-stain EM 2D class averages and SAXS (collar constriction)", "setting": "EcDnaB [2]", "result": "two kinds of 2D class averages were observed for EcDnaB in the presence of ATPγS"}]}
